Results on one substance are retold here after US20130005660A1, “Plasma Activation of Biological Materials for Surface Modification” (ORTHOBOND, INC., priority 2011, published 2013).

The nature of this series: Stability of gentamicin in 0.25M HCl under autoclave conditions. In kind it is physicochemical.

On to gentamicin, for which the stability of gentamicin result is recorded as “No significant loss of gentamicin detection”.
